Reference: PMC8761492 (Life Science Alliance, 2022)
Starred links: 1 amine or outer side, 2 acyl side, 3 side chain; linkers in the order of their positions; H or OH if unused. Positions of bridges follow the written chain, without caps; N, C: chain ends. Non-standard residues stand in square brackets, D forms with d. Residues, ends and D or L forms follow the SMILES beside them. *: point of attachment. X1 = CC[C@H](C)[C@@H](N[*:1])[C@@H](O)CC(=O)O[C@H](C(=O)[C@H](C)C(=O)[*:2])C(C)C; NMeY = CN[C@@H](Cc1ccc(O)cc1)C(=O)O; dNMeL = CN[C@H](CC(C)C)C(=O)O; Pyruvoyl = CC(=O)C(=O)*

Legend:
[1] = Drug-induced cytotoxicity in Vero E6 cells in the absence of virus; format: cell-based; conditions: monkey, Vero E6 cells (ATCC CRL-1586), uninfected, Vero E6 cells without virus
[2] = APLICOV-PC: central analysis of electrocardiograms; conditions: 317 ECGs from 44 patients; no value above

For `CC[C@H](C)[C@H]1NC(=O)[C@@H](NC(=O)[C@@H](CC(C)C)N(C)C(=O)[C@@H]2CCCN2C(=O)C(C)=O)[C@@H](C)OC(=O)[C@H](Cc2ccc(OC)cc2)N(C)C(=O)[C@@H]2CCCN2C(=O)[C@H](CC(C)C)NC(=O)[C@@H](C)C(=O)[C@H](C(C)C)OC(=O)C[C@@H]1O` [Plitidepsin] (Pyruvoyl-P[dNMeL]T[X1]LP[NMeY](Me); ester 3-C), the CC50 at 3 d [1] was 2900 nM, the QTcF [2] was no more than 480 ms and the “δ QTcF” value [2] was no more than 60 ms.
